The term Ki denotes a dissociation constant, usually derived from enzyme kinetics or from competition with a known ligand.

The target of the assay is 5-HT2A (Homo sapiens (Human), UniProt P28223). The assay can be described thus: Radioligand binding assay, [^3H]5-HT competition, 5-HT2A. As to conditions: [^3H]5-HT radioligand, membranes of HEK293 cells expressing recombinant 5-HT2A; Ki from IC50 by Cheng-Prusoff; read-out: 5-HT2A serotonin binding Ki value.
5-HT2A, sequence (P28223 whole entry): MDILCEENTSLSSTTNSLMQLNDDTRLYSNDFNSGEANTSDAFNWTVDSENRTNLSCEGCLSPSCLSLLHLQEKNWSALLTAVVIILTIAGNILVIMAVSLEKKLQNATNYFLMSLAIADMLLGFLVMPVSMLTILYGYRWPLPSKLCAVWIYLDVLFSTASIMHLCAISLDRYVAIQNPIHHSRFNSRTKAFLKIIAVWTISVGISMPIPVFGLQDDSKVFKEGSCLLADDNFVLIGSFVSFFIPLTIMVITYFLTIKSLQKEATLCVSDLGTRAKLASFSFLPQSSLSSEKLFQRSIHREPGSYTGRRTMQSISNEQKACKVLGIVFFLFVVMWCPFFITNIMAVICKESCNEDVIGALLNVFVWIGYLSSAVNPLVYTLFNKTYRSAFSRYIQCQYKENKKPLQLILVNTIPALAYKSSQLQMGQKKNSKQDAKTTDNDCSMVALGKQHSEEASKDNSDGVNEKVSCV
Turning to `Cc1ncnc(C)c1-c1cc(NC(=O)c2ccccc2)ccc1OCCN1C[C@H]2C[C@H]2C1` [Compound 384, N-[4-[2-[(1R,5S)-3-azabicyclo[3.1.0]hexan-3-yl]ethoxy]-3-(4,6-dimethylpyrimidin-5-yl)phenyl]benzamide], the Ki is 3.63 nM.
The figure for `Cc1ncnc(C)c1-c1cc(NC(=O)C2CC2)ccc1OCCN1CC(F)C1` [Compound 386, N-[3-(4,6-Dimethylpyrimidin-5-yl)-4-[2-(3-fluoroazetidin-1-yl)ethoxy]phenyl]cyclopropanecarboxamide] is 1.48 nM; for `Cc1ncnc(C)c1-c1cc(NC(=O)c2ccccc2)ccc1OCCN1CC(F)C1` [Compound 387, N-[3-(4,6-dimethylpyrimidin-5-yl)-4-[2-(3-fluoroazetidin-1-yl)ethoxy]phenyl]benzamide] it is 13.3 nM; for `Cc1ncnc(C)c1-c1cc(NC(=O)C2CC2)ccc1OCCN1CC(O)C1` [Compound 388, N-[3-(4,6-dimethylpyrimidin-5-yl)-4-[2-(3-hydroxyazetidin-1-yl)ethoxy]phenyl]cyclopropanecarboxamide] it is 13.7 nM.
The figure for `Cc1ncnc(C)c1-c1cc(NC(=O)c2ccccc2)ccc1OCCN1CC(O)C1` [Compound 389, N-[3-(4,6-dimethylpyrimidin-5-yl)-4-[2-(3-hydroxyazetidin-1-yl)ethoxy]phenyl]benzamide] is 11.2 nM.
In the case of `Cc1ncnc(C)c1-c1cc(NC(=O)C2CC2)ccc1OCCN1CCOCC1` [Compound 390, N-[3-(4,6-dimethylpyrimidin-5-yl)-4-(2-morpholinoethoxy)phenyl]cyclopropanecarboxamide] it was 5.25 nM; in that of `Cc1ncncc1-c1cc(NC(=O)C2CC2)ccc1OCCN1CCOCC1` [Compound 391, N-(3-(4-methylpyrimidin-5-yl)-4-(2-morpholinoethoxy)phenyl)cyclopropanecarboxamide], 25.3 nM.
With `Cc1ncnc(C)c1-c1cc(NC(=O)[C@@H]2C[C@@H]2F)ccc1OCCN1CCOCC1` [Compound 392, (1S,2S)—N-[3-(4,6-dimethylpyrimidin-5-yl)-4-(2-morpholinoethoxy)phenyl]-2-fluoro-cyclopropanecarboxamide], the Ki came to 15.2 nM.
In the case of `Cc1ncoc1C(=O)Nc1ccc(OCCN2CCOCC2)c(-c2c(C)ncnc2C)c1` [Compound 393, N-(3-(4,6-dimethylpyrimidin-5-yl)-4-(2-morpholinoethoxy)phenyl)-4-methyloxazole-5-carboxamide] it was 11.2 nM.
The figure for `Cc1ncnc(C)c1-c1cc(NC(=O)c2ccnn2C)ccc1OCCN1CCOCC1` [Compound 394, N-(3-(4,6-dimethylpyrimidin-5-yl)-4-(2-morpholinoethoxy)phenyl)-1-methyl-1H-pyrazole-5-carboxamide] is 13 nM.
In the case of `CCCC(=O)Nc1ccc(OC2CNC2)c(-c2c(C)ncnc2C)c1` [Compound 397, N-(4-(azetidin-3-yloxy)-3-(4,6-dimethylpyrimidin-5-yl)phenyl) butyramide] it was 8.59 nM.
In the case of `Cc1ncnc(C)c1-c1cc(NC(=O)c2ccnn2C)ccc1OC1CNC1` [Compound 399, N-(4-(azetidin-3-yloxy)-3-(4,6-dimethylpyrimidin-5-yl)phenyl)-1-methyl-1H-pyrazole-5-carboxamide], the Ki amounted to 12.8 nM.
The figure for `CCOC1CC1C(=O)Nc1ccc(OCCN2CCOCC2)c(-c2c(C)ncnc2C)c1` (centres unmarked) [Compound 401, N-(3-(4,6-dimethylpyrimidin-5-yl)-4-(2-morpholinoethoxy)phenyl)-2-ethoxycyclopropane-1-carboxamide] is 30.9 nM; for `Cc1ncnc(C)c1-c1cc(NC(=O)c2c(F)cnn2C)ccc1OC1CNC1` [Compound 402, N-(4-(azetidin-3-yloxy)-3-(4,6-dimethylpyrimidin-5-yl)phenyl)-4-fluoro-1-methyl-1H-pyrazole-5-carboxamide] it is 2.87 nM; for `Cc1ncnc(C)c1-c1cc(NC(=O)C2CC2)ccc1O[C@@H]1CCNC1` [Compound 403, N-[3-(4,6-dimethylpyrimidin-5-yl)-4-[(3R)-pyrrolidin-3-yl]oxy-phenyl]cyclopropanecarboxamide] it is 24.9 nM.
The figure for `Cc1ncnc(C)c1-c1cc(NC(=O)C2CC2)ccc1O[C@H]1CCNC1` [Compound 404, (S)—N-(3-(4,6-dimethylpyrimidin-5-yl)-4-(pyrrolidin-3-yloxy)phenyl)cyclopropanecarboxamide] is 69.2 nM; for `Cc1ncnc(C)c1-c1cc(NC(=O)C2CC2)ccc1OC[C@H]1CCN1` [Compound 405, N-[4-[[(2R)-azetidin-2-yl]methoxy]-3-(4,6-dimethylpyrimidin-5-yl)phenyl]cyclopropanecarboxamide] it is 52.4 nM; for `Cc1ncnc(C)c1-c1cc(NC(=O)C2CC2)ccc1OC[C@@H]1CCN1` [Compound 406, (S)—N-(4-(azetidin-2-ylmethoxy)-3-(4,6-dimethylpyrimidin-5-yl)phenyl)cyclopropanecarboxamide] it is 57 nM.
As for `Cc1ncnc(C)c1-c1cc(NC(=O)C2CC2)ccc1OC[C@@H]1CCCN1` [Compound 407, N-[3-(4,6-dimethylpyrimidin-5-yl)-4-[[(2S)-pyrrolidin-2-yl]methoxy]phenyl]cyclopropanecarboxamide], the Ki came out at 168 nM.
As to `Cc1ncnc(C)c1-c1cc(NC(=O)C2CC2)ccc1OC[C@H]1CCCN1` [Compound 408, (R)—N-(3-(4,6-dimethylpyrimidin-5-yl)-4-(pyrrolidin-2-ylmethoxy)phenyl)cyclopropanecarboxamide], the Ki was found to be 29.9 nM.
In the case of `Cc1ncnc(C)c1-c1cc(NC(=O)[C@H]2C[C@H]2F)ccc1O[C@@H]1CCCNC1` [Compound 410, (1R,2R)—N-(3-(4,6-dimethylpyrimidin-5-yl)-4-(((R)-piperidin-3-yl)oxy)phenyl)-2-fluorocyclopropane-1-carboxamide] it was 37.4 nM; in that of `Cc1ncnc(C)c1-c1cc(NC(=O)[C@@H]2C[C@@H]2F)ccc1O[C@@H]1CCCNC1` [Compound 411, (1S,2S)—N-(3-(4,6-dimethylpyrimidin-5-yl)-4-(((R)-piperidin-3-yl)oxy)phenyl)-2-fluorocyclopropane-1-carboxamide], 12.8 nM.
The figure for `Cc1ncsc1C(=O)Nc1ccc(O[C@@H]2CCCNC2)c(-c2c(C)ncnc2C)c1` [Compound 412, (R)—N-(3-(4,6-dimethylpyrimidin-5-yl)-4-(piperidin-3-yloxy)phenyl)-4-methylthiazole-5-carboxamide] is 20 nM.
On to `Cc1nc(C)c(C(=O)Nc2ccc(O[C@@H]3CCCNC3)c(-c3c(C)ncnc3C)c2)s1` [Compound 413, (R)—N-(3-(4,6-dimethylpyrimidin-5-yl)-4-(piperidin-3-yloxy)phenyl)-2,4-dimethylthiazole-5-carboxamide], for which the Ki stood at 255 nM.
In the case of `Cc1cnoc1C(=O)Nc1ccc(O[C@@H]2CCCNC2)c(-c2c(C)ncnc2C)c1` [Compound 414, (R)—N-(3-(4,6-dimethylpyrimidin-5-yl)-4-(piperidin-3-yloxy)phenyl)-4-methylisoxazole-5-carboxamide] it was 91 nM; in that of `Cc1ncoc1C(=O)Nc1ccc(O[C@@H]2CCCNC2)c(-c2c(C)ncnc2C)c1` [Compound 415, (R)—N-(3-(4,6-dimethylpyrimidin-5-yl)-4-(piperidin-3-yloxy)phenyl)-4-methyloxazole-5-carboxamide], 101 nM.

The values are drawn from patent publication US20250270172A1, “Pyrimidine Derivatives As Modulators of the 5-HT2A Serotonin Receptor Useful For The Treatment of Disorders Related Thereto” (Arena Pharmaceuticals, Inc., priority 2020, published 2025).
